Assay [1] concerns the target Human Cbl-b (residues 40-426) (Homo sapiens (Human), UniProt Q13191). Briefly: Cbl-b SPR assay. Type of assay: binding. The settings on record: for Fold of selectivity: C-cbl SPR Kd vs Cbl-b SPR Kd; for Kd: SPR, 20° C. In outline:
(§1)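 Protein captured at 1300-1500 RU; compounds run as 6-point 2-fold series in multi-cycle kinetics (60 s contact, 40 μl/min, 120-1200 s dissociation), fitted 1:1. For slow binders, kd came from chaser-compound occupancy over time, fixed in a single-cycle fit (5 concentrations, top 500 nM).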
In general terms: Surface plasmon resonance follows binding to a sensor surface in real time, without labels.

For a further assay, the target named is c-Cbl (residues 47-435) (Homo sapiens (Human), UniProt P22681). Briefly: c-Cbl SPR assay. The settings on record: 20° C. Type of assay: binding. In outline: as §1
The next assay deals with Cbl-b (Homo sapiens (Human), UniProt Q13191). Description: Cbl-b LCK Ub TR-FRET assay (Cbl-b Lck HTRF). The assay is classed as biochemical. The settings on record: for IC50: Cbl-b LCK Ub TR-FRET; for fold-selectivity (Cbl-b over C-cbl): ratio C-cbl Lck HTRF IC50 / Cbl-b Lck HTRF IC50. The gist of the method:
(§2)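 Signal is read once the detection mix has stood 20 min at ambient temperature. Curves are anchored by DMSO as maximum and by omission of LCK as minimum.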
On the technique in general: Time-resolved FRET reads energy transfer from a long-lived donor to a nearby acceptor.

A further assay concerns the target c-Cbl (Homo sapiens (Human), UniProt P22681). Briefly: C-Cbl LCK Ub TR-FRET assay (C-cbl Lck HTRF). The assay is classed as biochemical. In outline:
as §2

One may read the Kd as the constant that tells how readily two partners part at equilibrium. A higher Kd goes with lower affinity. For orientation: IC50 means the concentration that inhibits the measured activity by half.

Chain of c-Cbl (P22681 47-435): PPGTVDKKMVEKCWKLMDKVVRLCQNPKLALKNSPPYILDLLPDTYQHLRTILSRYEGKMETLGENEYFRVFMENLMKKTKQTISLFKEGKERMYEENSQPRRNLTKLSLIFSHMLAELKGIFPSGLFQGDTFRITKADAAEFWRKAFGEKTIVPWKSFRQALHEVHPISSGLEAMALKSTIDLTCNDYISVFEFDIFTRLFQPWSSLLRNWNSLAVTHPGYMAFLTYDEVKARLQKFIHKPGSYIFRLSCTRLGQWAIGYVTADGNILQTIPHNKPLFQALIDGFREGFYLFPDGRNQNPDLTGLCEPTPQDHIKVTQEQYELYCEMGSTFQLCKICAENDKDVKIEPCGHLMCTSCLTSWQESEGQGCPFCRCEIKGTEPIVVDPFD
Chain of c-Cbl (residues 47-435) (P22681 47-435): as above
Chain of Cbl-b (Q13191 40-426): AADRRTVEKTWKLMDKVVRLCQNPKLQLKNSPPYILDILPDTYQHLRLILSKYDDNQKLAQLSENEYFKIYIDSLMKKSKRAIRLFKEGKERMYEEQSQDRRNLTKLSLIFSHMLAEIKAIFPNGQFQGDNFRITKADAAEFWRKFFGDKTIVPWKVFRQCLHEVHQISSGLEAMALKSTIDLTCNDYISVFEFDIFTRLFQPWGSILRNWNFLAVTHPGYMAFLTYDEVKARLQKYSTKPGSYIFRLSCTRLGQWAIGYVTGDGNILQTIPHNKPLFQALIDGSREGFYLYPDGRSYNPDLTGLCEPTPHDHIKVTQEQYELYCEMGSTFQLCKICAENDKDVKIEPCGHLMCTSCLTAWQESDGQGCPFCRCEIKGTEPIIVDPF
Chain of Human Cbl-b (residues 40-426) (Q13191 40-426): as above

In assay [1], `Cn1cnnc1C(c1cccc(N2Cc3c(cc(CNC4(C)CCC4)cc3C(F)(F)F)C2=O)c1)[C@H]1C[C@H](Cl)C1` (single isomer, unassigned) [Compound 356] gave a Fold of selectivity of 11× and a Kd of 19 nM. The compound further displayed a Kd on c-Cbl (residues 47-435) of 210 nM. Besides, at Cbl-b, it took 29 nM to reach half-maximal inhibition (IC50) and the “fold-selectivity (Cbl-b over C-cbl)” value was determined as 6.1x. Moreover, half-maximal inhibition against c-Cbl (IC50) required 180 nM.
In assay [1], `Cn1cnnc1C(c1cccc(N2Cc3c(cc(CNC4(C)CCC4)cc3C(F)(F)F)C2=O)c1)[C@H]1C[C@@H](Cl)C1` (single isomer, unassigned) [Compound 357] returned a Fold of selectivity of 5.5× and a Kd of 0.4 nM. Also, the Kd on c-Cbl (residues 47-435) stood at 2.2 nM. In addition, at Cbl-b, the IC50 came to 5.2 nM and the “fold-selectivity (Cbl-b over C-cbl)” value came to 1.4x. Moreover, the IC50 at c-Cbl came out at 7.1 nM.
In assay [1], `CC[C@@H](c1cccc(N2Cc3c(Cl)cc(CNC4(C)CCC4)cc3C2=O)c1)c1nncn1C` (single isomer, unassigned) [Compound 359] displayed a Fold of selectivity of 2.1×. The values for the Kd (in assay [1]; on c-Cbl (residues 47-435)) were 0.4 nM and 0.82 nM, respectively. In addition, the IC50 on Cbl-b was found to be 4.8 nM; against c-Cbl, 4.1 nM. Also, the “fold-selectivity (Cbl-b over C-cbl)” value on Cbl-b is reported as 0.85x.
`CO[C@H]1C[C@](c2cccc(N3Cc4c(cc([C@H](N)C(C)(C)C)cc4C(F)(F)F)C3=O)c2)(c2nncn2C)C1` (single isomer, unassigned) [Compound 360] returned a Fold of selectivity in assay [1] of 10×. The Kd was 84 nM in assay [1] and 840 nM on c-Cbl (residues 47-435). The IC50 on Cbl-b was found to be 92 nM; against c-Cbl it was 590 nM. Further, at Cbl-b, the “fold-selectivity (Cbl-b over C-cbl)” value worked out at 6.4x.
In assay [1], `CO[C@H]1C[C@](c2cccc(N3Cc4c(cc([C@@H](N)C(C)(C)C)cc4C(F)(F)F)C3=O)c2)(c2nncn2C)C1` (single isomer, unassigned) [Compound 361] had a Fold of selectivity of 21× and a Kd of 4 nM. On c-Cbl (residues 47-435), the Kd worked out at 84 nM. In addition, at Cbl-b, the IC50 is 8.1 nM and the “fold-selectivity (Cbl-b over C-cbl)” value was 4.4x. Besides, at c-Cbl, the IC50 was 36 nM.
`Cn1cnnc1C(c1cccc(N2Cc3c(cc(CNC4(C)CCC4)cc3C(F)(F)F)C2=O)c1)[C@H]1C[C@@H](CC#N)C1` (single isomer, unassigned) [Compound 362]: the Fold of selectivity in assay [1] came to 21×. Also, the dissociation constant (Kd) worked out at 2.9 nM in assay [1] and 59 nM on c-Cbl (residues 47-435). The IC50 at Cbl-b came out at 6 nM; against c-Cbl, 38 nM. Also, at Cbl-b, the “fold-selectivity (Cbl-b over C-cbl)” value is 6.3x.
Compound `Cn1cnnc1C(c1cccc(N2Cc3c(cc(CNC4(C)CCC4)cc3C(F)(F)F)C2=O)c1)[C@H]1C[C@H](CC#N)C1` (single isomer, unassigned) [Compound 363] displayed a Fold of selectivity in assay [1] of 3.6×. For the same compound, the Kd in assay [1] is 78 nM; at c-Cbl (residues 47-435) it was 280 nM. Further, the IC50 against Cbl-b was found to be 61 nM; against c-Cbl, 140 nM. Moreover, the “fold-selectivity (Cbl-b over C-cbl)” value at Cbl-b was found to be 2.3x.
As to `Cn1cnnc1C(c1cccc(N2Cc3c(cc(CNC4(C)CCC4)cc3C(F)(F)F)C2=O)c1)[C@H]1C[C@H](CC#N)C1` (single isomer, unassigned) [Compound 364], in assay [1], the Fold of selectivity is reported as 4.4× and binding was characterised by a dissociation constant (Kd) of 0.55 nM. The compound also gave a Kd on c-Cbl (residues 47-435) of 2.4 nM. Also, on Cbl-b, the concentration for half-maximal inhibition (IC50) is 2.5 nM and the “fold-selectivity (Cbl-b over C-cbl)” value stood at 1.3x. This compound also registered an IC50 on c-Cbl of 3.3 nM.
In assay [1], `Cn1cnnc1C(c1cccc(N2Cc3c(cc(CNC4(C)CCC4)cc3C(F)(F)F)C2=O)c1)[C@H]1C[C@@H](CC#N)C1` (single isomer, unassigned) [Compound 365] had a Fold of selectivity of 6× and an equilibrium dissociation constant (Kd) of 0.85 nM. At c-Cbl (residues 47-435), the affinity, expressed as Kd, was 7.2 nM. Further, at Cbl-b, the IC50 was 4.8 nM and the “fold-selectivity (Cbl-b over C-cbl)” value is listed as 1.2x. In addition, the IC50 at c-Cbl came out at 5.9 nM.
In the case of `CO[C@H]1C[C@@](O)(C(c2cccc(N3Cc4c(cc(CNC5(C)CCC5)cc4C(F)(F)F)C3=O)c2)c2nncn2C)C1` (single isomer, unassigned) [Compound 369], in assay [1], the Fold of selectivity came out at 7.2× and the Kd was found to be 210 nM. The compound further returned a Kd on c-Cbl (residues 47-435) of 1500 nM. Moreover, on Cbl-b, the IC50 came out at 240 nM and the “fold-selectivity (Cbl-b over C-cbl)” value is 4.3x. Also, on c-Cbl, the IC50 worked out at 1000 nM.
On to `Cn1cnnc1[C@H](c1cccc(N2Cc3c(cc(CNC4(C)CCC4)cc3C(F)(F)F)C2=O)c1)[C@H]1C[C@H](C)C1` (single isomer, unassigned) [Compound 376, 2-(3-((S)-(4-methyl-4H-1,2,4-triazol-3-yl)((1r,3S)-3-methylcyclobutyl)methyl)phenyl)-6-(((1-methylcyclobutyl)amino)methyl)-4-(trifluoromethyl)isoindolin-1-one], for which, in assay [1], the Fold of selectivity is 16× and the Kd worked out at 46 nM. In addition, the Kd on c-Cbl (residues 47-435) came out at 790 nM. Moreover, at Cbl-b, the “fold-selectivity (Cbl-b over C-cbl)” value turned out to be 9.0x. Besides, the IC50 at c-Cbl turned out to be 490 nM.
In assay [1], `Cn1cnnc1[C@H](c1cccc(N2Cc3c(cc(CNC4(C)CCC4)cc3C(F)(F)F)C2=O)c1)[C@H]1C[C@@H](C)C1` (single isomer, unassigned) [Compound 377] had a Fold of selectivity of 11× and a Kd of 240 nM. This compound also showed a Kd on c-Cbl (residues 47-435) of 2600 nM. Further, at Cbl-b, 240 nM corresponded to half-maximal inhibition (IC50) and the “fold-selectivity (Cbl-b over C-cbl)” value came out at 11x. Further, inhibition against c-Cbl was half-maximal at 2500 nM (IC50).
Consider `Cn1cnnc1[C@@H](c1cccc(N2Cc3c(cc(CNC4(C)CCC4)cc3C(F)(F)F)C2=O)c1)[C@H]1C[C@H](C)C1` (single isomer, unassigned) [Compound 378], for which, in assay [1], the Fold of selectivity was found to be 14× and binding was characterised by a dissociation constant (Kd) of 6.9 nM. The same compound yielded a Kd at c-Cbl (residues 47-435) of 96 nM. In addition, at Cbl-b, the IC50 was 9.4 nM and the “fold-selectivity (Cbl-b over C-cbl)” value came to 6.0x. Moreover, at c-Cbl, half-maximal inhibition (IC50) required 56 nM.
Turning to `Cn1cnnc1[C@@H](c1cccc(N2Cc3c(cc(CNC4(C)CCC4)cc3C(F)(F)F)C2=O)c1)[C@H]1C[C@@H](C)C1` (single isomer, unassigned) [Compound 379], in assay [1], the Fold of selectivity was found to be 6.7× and binding was characterised by a dissociation constant (Kd) of 0.9 nM. This compound displayed a Kd at c-Cbl (residues 47-435) of 6 nM. For the same compound, on Cbl-b, the IC50 came out at 6.8 nM and the “fold-selectivity (Cbl-b over C-cbl)” value amounted to 1.6x. At c-Cbl, this compound displayed an IC50 of 9.5 nM.
For `Cn1cnnc1[C@@H](c1cccc(N2Cc3c(cc(CNC4(C)CCC4)cc3C(F)(F)F)C2=O)c1)C1(F)COC1` (single isomer, unassigned) [Compound 380], in assay [1], the Fold of selectivity is given as 5.0× and the Kd is 0.8 nM. The compound further showed a Kd on c-Cbl (residues 47-435) of 4 nM. Further, on Cbl-b, the IC50 stood at 6 nM and the “fold-selectivity (Cbl-b over C-cbl)” value was 1.2x. For the same compound, the IC50 on c-Cbl was 7.1 nM.
In assay [1], `Cn1cnnc1[C@H](c1cccc(N2Cc3c(cc(CNC4(C)CCC4)cc3C(F)(F)F)C2=O)c1)C1(F)COC1` (single isomer, unassigned) [Compound 381] yielded a Fold of selectivity of 6.0×. Also, the Kd in assay [1] worked out at 2.7 nM; on c-Cbl (residues 47-435), 16 nM. Further, the IC50 on Cbl-b stood at 8.8 nM; against c-Cbl it was 16 nM. Also, the “fold-selectivity (Cbl-b over C-cbl)” value at Cbl-b is given as 1.9x.
In assay [1], `CC(=O)C1CC([C@H](c2cccc(N3Cc4c(cc(CNC5(C)CCC5)cc4C(F)(F)F)C3=O)c2)c2nncn2C)C1` (single isomer, unassigned) [Compound 382] showed a Fold of selectivity of 0.8× and a Kd of 190 nM. This compound showed a Kd at c-Cbl (residues 47-435) of 150 nM. Further, on Cbl-b, the midpoint of inhibition, the IC50, lay at 150 nM and the “fold-selectivity (Cbl-b over C-cbl)” value is listed as 3.0x. This compound also registered an IC50 against c-Cbl of 450 nM.
`CC(=O)C1CC([C@@H](c2cccc(N3Cc4c(cc(CNC5(C)CCC5)cc4C(F)(F)F)C3=O)c2)c2nncn2C)C1` (single isomer, unassigned) [Compound 383] gave a Fold of selectivity in assay [1] of 7.7×. For the same compound, the figures for the Kd (in assay [1]; on c-Cbl (residues 47-435)) were 2.6 nM and 20 nM, respectively. The values for the IC50 against Cbl-b and against c-Cbl were 19 nM and 24 nM, respectively. Moreover, the “fold-selectivity (Cbl-b over C-cbl)” value on Cbl-b is 1.3x.
On to `CC(=O)C1CC([C@@H](c2cccc(N3Cc4c(cc(CNC5(C)CCC5)cc4C(F)(F)F)C3=O)c2)c2nncn2C)C1` (single isomer, unassigned) [Compound 384], for which, in assay [1], the Fold of selectivity was 5.6× and binding was characterised by a dissociation constant (Kd) of 7 nM. In addition, on c-Cbl (residues 47-435), the affinity, expressed as Kd, was 39 nM. At Cbl-b, the midpoint of inhibition, the IC50, lay at 24 nM and the “fold-selectivity (Cbl-b over C-cbl)” value is listed as 2.8x. This compound registered an IC50 at c-Cbl of 66 nM.
As to `CC(=O)C1CC([C@H](c2cccc(N3Cc4c(cc(CNC5(C)CCC5)cc4C(F)(F)F)C3=O)c2)c2nncn2C)C1` (single isomer, unassigned) [Compound 385], in assay [1], the Fold of selectivity was 0.7× and binding was put at a Kd of 560 nM. For the same compound, binding at c-Cbl (residues 47-435) was characterised by a dissociation constant (Kd) of 390 nM. At Cbl-b, half-maximal inhibition (IC50) required 260 nM and the “fold-selectivity (Cbl-b over C-cbl)” value was found to be 2.8x. This compound showed an IC50 against c-Cbl of 720 nM.
In assay [1], `Cn1cnnc1[C@@H](c1cccc(N2Cc3c(cc(CNC4(C)CCC4)cc3C(F)(F)F)C2=O)c1)C1CC(OC(F)F)C1` (single isomer, unassigned) [Compound 387] had a Fold of selectivity of 9.5× and a Kd of 200 nM. In addition, the Kd at c-Cbl (residues 47-435) came to 1900 nM. Moreover, at Cbl-b, inhibition was half-maximal at 130 nM (IC50) and the “fold-selectivity (Cbl-b over C-cbl)” value was 7.8x. The IC50 on c-Cbl was determined as 1000 nM.

The record behind these values is US12187709B2 (Genentech, Inc., priority 2021, dated 2025).
